# What was measured:
# OVCAR-3 = test: NCI anticancer screen, OVCAR-3; type: cell-based, human; settings: Homo sapiens; OVCAR-3, Ovarian, 48 h
# T-47D = test: NCI anticancer screen, T-47D; type: cell-based, human; settings: Homo sapiens, T47D, Breast, 48 h
# HCT-116 = test: NCI anticancer screen, HCT-116; type: cell-based, human; settings: Homo sapiens; HCT-116, Colon, 48 h
# NCI-H522 = test: NCI anticancer screen, NCI-H522; type: cell-based, human; settings: Homo sapiens; NCI-H522, Non-Small Cell Lung, 48 h
# DU-145 = test: NCI anticancer screen, DU-145; type: cell-based, human; settings: Homo sapiens; DU-145, Prostate, 48 h
# LOX IMVI = test: NCI anticancer screen, LOX IMVI; type: cell-based, human; settings: Homo sapiens, Melanoma, 48 h
# SK-MEL-2 = test: NCI anticancer screen, SK-MEL-2; type: cell-based, human; settings: Homo sapiens; SK-MEL-2, Melanoma, 48 h
# SF-295 = test: NCI anticancer screen, SF-295; type: cell-based, human; settings: Homo sapiens; SF-295, CNS, 48 h
# SNB-75 = test: NCI anticancer screen, SNB-75; type: cell-based, human; settings: Homo sapiens; SNB-75, CNS, 48 h
# 786-0 = test: NCI anticancer screen, 786-0; type: cell-based, human; settings: Homo sapiens; 786-0, Renal, 48 h
# OVCAR-5 = test: NCI anticancer screen, OVCAR-5; type: cell-based, human; settings: Homo sapiens; OVCAR-5, Ovarian, 48 h
# RXF 393 = test: NCI anticancer screen, RXF 393; type: cell-based, human; settings: Homo sapiens; RXF 393, Renal, 48 h
# HCT-15 = test: NCI anticancer screen, HCT-15; type: cell-based, human; settings: Homo sapiens; HCT-15, Colon, 48 h
# SR = test: NCI anticancer screen, SR; type: cell-based, human; settings: Homo sapiens, Leukemia, 48 h
# NCI-H460 = test: NCI anticancer screen, NCI-H460; type: cell-based, human; settings: Homo sapiens; NCI-H460, Non-Small Cell Lung, 48 h
# KM12 = test: NCI anticancer screen, KM12; type: cell-based, human; settings: Homo sapiens; KM12, Colon, 48 h
# A549/ATCC = test: NCI anticancer screen, A549/ATCC; type: cell-based, human; settings: Homo sapiens, Non-Small Cell Lung, 48 h
# SNB-19 = test: NCI anticancer screen, SNB-19; type: cell-based, human; settings: Homo sapiens; SNB-19, CNS, 48 h
# COLO 205 = test: NCI anticancer screen, COLO 205; type: cell-based, human; settings: Homo sapiens; COLO 205, Colon, 48 h
# SK-MEL-28 = test: NCI anticancer screen, SK-MEL-28; type: cell-based, human; settings: Homo sapiens; SK-MEL-28, Melanoma, 48 h
# A498 = test: NCI anticancer screen, A498; type: cell-based, human; settings: Homo sapiens; A498, Renal, 48 h
# SN12C = test: NCI anticancer screen, SN12C; type: cell-based, human; settings: Homo sapiens, 48 h, Renal
# HT29 = test: NCI anticancer screen, HT29; type: cell-based, human; settings: Homo sapiens, HT-29; HT29, Colon, 48 h
# ACHN = test: NCI anticancer screen, ACHN; type: cell-based, human; settings: Homo sapiens, Renal, 48 h
# K-562 = test: NCI anticancer screen, K-562; type: cell-based, human; settings: Homo sapiens, K562; K-562, Leukemia, 48 h
# NCI-H226 = test: NCI anticancer screen, NCI-H226; type: cell-based, human; settings: Homo sapiens; NCI-H226, Non-Small Cell Lung, 48 h
# [1] = test system: 60 different human cancer cell lines; test: NCI in vitro anticancer screen (whole panel); type: cell-based; settings: NCI screen, 48 h
# MDA-MB-435 = test: NCI anticancer screen, MDA-MB-435; type: cell-based, human; settings: Homo sapiens; MDA-MB-435, Breast, 48 h
# NCI-H322M = test: NCI anticancer screen, NCI-H322M; type: cell-based, human; settings: Homo sapiens, Non-Small Cell Lung, 48 h
# NCI-H23 = test: NCI anticancer screen, NCI-H23; type: cell-based, human; settings: Homo sapiens; NCI-H23, Non-Small Cell Lung, 48 h
# OVCAR-8 = test: NCI anticancer screen, OVCAR-8; type: cell-based, human; settings: Homo sapiens; OVCAR-8, Ovarian, 48 h
# MDA-MB-231/ATCC = test: NCI anticancer screen, MDA-MB-231/ATCC; type: cell-based, human; settings: Homo sapiens, Breast, 48 h
# M14 = test: NCI anticancer screen, M14; type: cell-based, human; settings: Homo sapiens; M14, Melanoma, 48 h
# NCI/ADR-RES = test: NCI anticancer screen, NCI/ADR-RES; type: cell-based, human; settings: Homo sapiens, Breast, 48 h
Compound,GI50 (OVCAR-3),GI50 (T-47D),GI50 (HCT-116),GI50 (NCI-H522),GI50 (DU-145),GI50 (LOX IMVI),GI50 (SK-MEL-2),GI50 (SF-295),GI50 (SNB-75),GI50 (786-0),GI50 (OVCAR-5),GI50 (RXF 393),GI50 (HCT-15),GI50 (SR),GI50 (NCI-H460),GI50 (KM12),GI50 (A549/ATCC),GI50 (SNB-19),GI50 (COLO 205),GI50 (SK-MEL-28),also measured
COc1cc(CNc2ccc(C(=O)OC(C)(C)C)cc2)cc(CN2CCN(c3ccccn3)CC2)c1O [Compound Q012145T],37.5 µM,13.1 µM,15.2 µM,52.9 µM,> 100 µM,60.4 µM,> 100 µM,69.9 µM,> 100 µM,48.6 µM,> 100 µM,80.3 µM,46.4 µM,8.3 µM,21.9 µM,80.1 µM,84.3 µM,> 100 µM,24.8 µM,> 100 µM,GI50 (A498): 16.2 µM; GI50 (SN12C): > 100 µM; GI50 (HT29): 12.7 µM; GI50 (ACHN): > 100 µM; GI50 (K-562): 10.2 µM; GI50 (NCI-H226): > 100 µM; growth and proliferation of human primary cancer cell-lines (in words) [1]: inhibited growth and proliferation; GI50 (MDA-MB-435): 60.1 µM; GI50 (NCI-H322M): > 100 µM; GI50 (NCI-H23): 51.6 µM; GI50 (OVCAR-8): > 100 µM; GI50 (MDA-MB-231/ATCC): > 100 µM; GI50 (M14): 83.3 µM; GI50 (NCI/ADR-RES): 41.1 µM
"CC(C)(C)OC(=O)Nc1ccc(O)c(C(=O)NCCOC(=O)NCCNC(=O)c2cc(OCc3ccccc3)ccc2OCc2ccccc2)c1 [Compound Q012052, 2-[5-(BOC-amino)-2-hydroxybenzoylamino]ethyl 2-[2,5-bis-(benzyl-oxy)benzoylamino]ethylcarbamate]",> 100 µM,5.05 µM,> 100 µM,49.7 µM,> 100 µM,> 100 µM,> 100 µM,21.9 µM,68.9 µM,> 100 µM,> 100 µM,> 100 µM,> 100 µM,89.8 µM,> 100 µM,> 100 µM,68.8 µM,> 100 µM,8.97 µM,> 100 µM,GI50 (A498): > 100 µM; GI50 (SN12C): > 100 µM; GI50 (HT29): > 100 µM; GI50 (ACHN): > 100 µM; GI50 (K-562): 14 µM; GI50 (NCI-H226): > 100 µM; growth and proliferation of human primary cancer cell-lines (in words) [1]: inhibited growth and proliferation; GI50 (MDA-MB-435): > 100 µM; GI50 (NCI-H322M): > 100 µM; GI50 (NCI-H23): > 100 µM; GI50 (OVCAR-8): > 100 µM; GI50 (MDA-MB-231/ATCC): > 100 µM; GI50 (M14): > 100 µM; GI50 (NCI/ADR-RES): > 100 µM
CCOC(=O)[C@H](Cc1ccccc1)NCc1cc(CN2CCN(c3ccccn3)CC2)c(O)c(OC)c1 [Compound Q012147T],86.2 µM,33.5 µM,34.4 µM,76.3 µM,> 100 µM,> 100 µM,> 100 µM,> 100 µM,56.6 µM,60.2 µM,> 100 µM,76.5 µM,98.3 µM,0.32 µM,60.6 µM,> 100 µM,> 100 µM,> 100 µM,> 100 µM,> 100 µM,GI50 (A498): > 100 µM; GI50 (SN12C): > 100 µM; GI50 (HT29): 43.2 µM; GI50 (ACHN): 78.2 µM; GI50 (K-562): 49.3 µM; GI50 (NCI-H226): > 100 µM; growth and proliferation of human primary cancer cell-lines (in words) [1]: inhibited growth and proliferation; GI50 (MDA-MB-435): 83.2 µM; GI50 (NCI-H322M): 49.4 µM; GI50 (NCI-H23): 55.9 µM; GI50 (OVCAR-8): > 100 µM; GI50 (MDA-MB-231/ATCC): > 100 µM; GI50 (M14): 99 µM; GI50 (NCI/ADR-RES): > 100 µM

# From patent US20080280920A1, “Plasminogen Activator Inhibitor-1 Inhibitors” (priority 2005, published 2008)
